Results from patent US20250179066A1, “ZWITTERIONIC ANTIBACTERIAL COMPOUNDS” (Hoffmann-La Roche Inc., priority 2022, published 2025).
Counter-ions that a name gives are not always drawn.

Tested on: Acinetobacter baumannii ATCC17961
Assay: Antimicrobial susceptibility testing: 90% growth inhibitory concentration (IC90) determination
Type: cell-based
Conditions: Acinetobacter baumannii, ATCC17961, 16 h, 90% growth inhibitory concentration against Acinetobacter baumannii ATCC17961, Iso-Sensitest broth, OD 600 nm over 16 h; read-out: ATCC 17961 IC90
Method in brief: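 Twofold serial dilutions (e.g. 10 to 0.0195 μM final) in Iso-Sensitest broth inoculated at ~5×10^5 CFU/mL, incubated at 35±2° C. OD600 read every minute for 16 h; IC90 is the concentration inhibiting 90% of growth during logarithmic phase.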

SMILES | IC90 [nM]
Cn1c(-c2cn(-c3ccc(N)cn3)nc2C(F)(F)F)cnc1C(=O)Nc1ccc(C(=O)N2CCN(C(=O)[C@H](N)CC(=O)O)CC2)c(Cl)c1 [Example 85, (3R)-3-amino-4-[4-[4-[[5-[1-(5-amino-2-pyridyl)-3-(trifluoromethyl)pyrazol-4-yl]-1-methyl-imidazole-2-carbonyl]amino]-2-chloro-benzoyl]piperazino]-4-keto-butyric acid. 1:1 2,2,2-trifluoroacetic acid] | 1360
Cn1c(-c2cn(-c3cc4[nH]c(C(=O)N5CCS(=N)(=O)CC5)cc4cn3)nc2C(F)(F)F)cnc1C(=O)Nc1ccc(C(=O)N2CCN(C(=O)[C@H]3CC[N@+](CC(=O)O)(CC4CNC4)CC3)CC2)c(Cl)c1 [Example 114, cis-2-[1-(azetidin-3-ylmethyl)-4-[4-[2-chloro-4-[[5-[1-[2-(1-imino-1-keto-1,4-thiazinane-4-carbonyl)-1H-pyrrolo[3,2-c]pyridin-6-yl]-3-(trifluoromethyl)pyrazol-4-yl]-1-methyl-imidazole-2-carbonyl]amino]benzoyl]piperazine-1-carbonyl]piperidin-1-ium-1-yl]acetic acid. 1:1 2,2,2-trifluoroacetate] | 637
Cn1c(-c2cn(-c3ccc(N)cn3)nc2C(F)(F)F)cnc1C(=O)Nc1ccc(C(=O)N2CCN(C(=O)CCC[N+](CCCN)(CCCN)CC(=O)O)CC2)c(Cl)c1 [Example 35, bis(3-aminopropyl)-[4-[4-[4-[[5-[1-(5-amino-2-pyridyl)-3-(trifluoromethyl)pyrazol-4-yl]-1-methyl-imidazole-2-carbonyl]amino]-2-chloro-benzoyl]piperazino]-4-keto-butyl]-(carboxymethyl)ammonium. 1:1 2,2,2-trifluoroacetic acid. 1:1 2,2,2-trifluoroacetate] | 400
Cn1c(-c2cn(-c3ccc4[nH]c(CO)cc4n3)nc2C(F)(F)F)cnc1C(=O)Nc1ccc(C(=O)N2CCN(C(=O)[C@H]3CC[N@+](CC(=O)O)(CC4CNC4)CC3)CC2)c(F)c1 [Example 151, cis-2-[1-(azetidin-3-ylmethyl)-4-[4-[2-fluoro-4-[[1-methyl-5-[1-(2-methylol-1H-pyrrolo[3,2-b]pyridin-5-yl)-3-(trifluoromethyl)pyrazol-4-yl]imidazole-2-carbonyl]amino]benzoyl]piperazine-1-carbonyl]piperidin-1-ium-1-yl]acetic acid. 1:1 2,2,2-trifluoroacetate] | 403
Cn1c(-c2cn(-c3ccc(N)cn3)nc2C(F)(F)F)cnc1C(=O)Nc1ccc(C(=O)N2CCN(C(=O)[C@H]3CC[N@@+](CCCN)(CC(=O)O)CC3)CC2)c(Cl)c1 [Example 32, cis-2-[1-(3-aminopropyl)-4-[4-[4-[[5-[1-(5-amino-2-pyridyl)-3-(trifluoromethyl)pyrazol-4-yl]-1-methyl-imidazole-2-carbonyl]amino]-2-chloro-benzoyl]piperazine-1-carbonyl]piperidin-1-ium-1-yl]acetic acid. 1:1 2,2,2-trifluoroacetate] | 370
Cn1c(-c2cn(-c3ccc4[nH]c(CCC(N)=O)cc4n3)nc2C(F)(F)F)cnc1C(=O)Nc1ccc(C(=O)N2CCN(C(=O)[C@H]3CC[N@@+](CCCN)(CC(=O)O)CC3)CC2)c(Cl)c1 [Example 99, cis-2-[4-[4-[4-[[5-[1-[2-(3-amino-3-oxo-propyl)-1H-pyrrolo[3,2-b]pyridin-5-yl]-3-(trifluoromethyl)pyrazol-4-yl]-1-methyl-imidazole-2-carbonyl]amino]-2-chloro-benzoyl]piperazine-1-carbonyl]-1-(3-aminopropyl)piperidin-1-ium-1-yl]acetic acid;2,2,2-trifluoroacetate] | 361

More lines, now with the values ahead:

IC90 [nM] | SMILES
175 | CNc1ccc(-n2cc(-c3cnc(C(=O)Nc4ccc(C(=O)N5CCN(C(=O)[C@H]6CC[N@+](CC(=O)O)(CC7CNC7)CC6)CC5)c(C)c4)n3C)c(C(F)(F)F)n2)c(F)c1 [Example 107, cis-2-[1-(azetidin-3-ylmethyl)-4-[4-[4-[[5-[1-[2-fluoro-4-(methylamino)phenyl]-3-(trifluoromethyl)pyrazol-4-yl]-1-methyl-imidazole-2-carbonyl]amino]-2-methyl-benzoyl]piperazine-1-carbonyl]piperidin-1-ium-1-yl]acetic acid;2,2,2-trifluoroacetate]
1030 | Cn1c(-c2cn(-c3ccc(C#N)cn3)nc2C(F)(F)F)cnc1C(=O)Nc1ccc(C(=O)N2CCN(C(=O)C3CC[N+](CC(=O)O)(CC4CNC4)CC3)CC2)c(Cl)c1 (stereo not drawn) [Example 76, 2-[1-(azetidin-3-ylmethyl)-4-[4-[2-chloro-4-[[5-[1-(5-cyano-2-pyridyl)-3-(trifluoromethyl)pyrazol-4-yl]-1-methyl-imidazole-2-carbonyl]amino]benzoyl]piperazine-1-carbonyl]piperidin-1-ium-1-yl]acetic acid. 1:1 formate]
790 | Cn1c(-c2cn(-c3ccc(NC4CCC4)cn3)nc2C(F)(F)F)cnc1C(=O)Nc1ccc(C(=O)N2CCN(C(=O)C3CC[N+](CC(=O)O)(CC4CNC4)CC3)CC2)c(Cl)c1 (stereo not drawn) [Example 69, 2-[1-(azetidin-3-ylmethyl)-4-[4-[2-chloro-4-[[5-[1-[5-(cyclobutylamino)-2-pyridyl]-3-(trifluoromethyl)pyrazol-4-yl]-1-methyl-imidazole-2-carbonyl]amino]benzoyl]piperazine-1-carbonyl]piperidin-1-ium-1-yl]acetic acid. 1:1 formate]
1730 | Cn1c(-c2cn(-c3sncc3N)nc2C(F)(F)F)cnc1C(=O)Nc1ccc(C(=O)N2CCN(C(=O)C3CC[N+](CC(=O)O)(CC4CNC4)CC3)CC2)c(Cl)c1 (stereo not drawn) [Example 94, 2-[4-[4-[4-[[5-[1-(4-Aminoisothiazol-5-yl)-3-(trifluoromethyl)pyrazol-4-yl]-1-methyl-imidazole-2-carbonyl]amino]-2-chloro-benzoyl]piperazine-1-carbonyl]-1-(azetidin-3-ylmethyl)piperidin-1-ium-1-yl]acetic Acid.1:1 formate]
340 | Cn1c(-c2cn(-c3ccc(NCc4ccccn4)cn3)nc2C(F)(F)F)cnc1C(=O)Nc1ccc(C(=O)N2CCN(C(=O)C3CC[N+](CC(=O)O)(CC4CNC4)CC3)CC2)c(Cl)c1 (stereo not drawn) [Example 23, 2-[1-(azetidin-3-ylmethyl)-4-[4-[2-chloro-4-[[1-methyl-5-[1-[5-(2-pyridylmethylamino)-2-pyridyl]-3-(trifluoromethyl)pyrazol-4-yl]imidazole-2-carbonyl]amino]benzoyl]piperazine-1-carbonyl]piperidin-1-ium-1-yl]acetic acid. 1:1 2,2,2-trifluoroacetate]
680 | Cn1c(-c2cn(-c3ccc4occc4n3)nc2C(F)(F)F)cnc1C(=O)Nc1ccc(C(=O)N2CCN(C(=O)C3CC[N+](CC(=O)O)(CC4CNC4)CC3)CC2)c(Cl)c1 (stereo not drawn) [Example 63, 2-[1-(azetidin-3-ylmethyl)-4-[4-[2-chloro-4-[[5-[1-furo[3,2-b]pyridin-5-yl-3-(trifluoromethyl)pyrazol-4-yl]-1-methyl-imidazole-2-carbonyl]amino]benzoyl]piperazine-1-carbonyl]piperidin-1-ium-1-yl]acetic acid. 1:1 2,2,2-trifluoroacetate]
